Test results reported in patent EP0318860B1, “Substituted alkylamine derivatives” (BANYU PHARMACEUTICAL CO., LTD., priority 1987, dated 1989).
Counter-ions that a name gives are not always drawn.

Target: T1, rat squalene epoxidase (Rattus norvegicus, UniProt P52020)
T1 construct: Livers were extracted and homogenized; from tissue; host or cells: liver of SD-strain female rats; microsomes solubilized with 2 % Triton X-100, 105000 x g supernatant
Experiment: Squalene epoxidase inhibiting activity (3H-squalene to squalene-2,3-epoxide, solubilized liver microsome fraction)
Assay type: biochemical
Details: 8 µM 3H-squalene, 37 °C, 30 minutes, read-out: 50 % inhibitory concentration (IC50)
Procedure: The rat squalene epoxidase was prepared by the method described in J. Biol. Chem., vol.
SD-strain female rats were killed by exsanguination. Livers were extracted and homogenized with in the presence of 2 volumes of 0.1M Tris-HCl buffer (pH 7.5). The homogenate was centrifuged at 9750 Xg for 10 minutes. The supernatant fraction was further centrifuged at 105000 Xg for 1 hour. The sediment was washed with 0.1M Tris-HCl buffer (pH 7.5), and then centrifuged at 105000 Xg for 1 hour. The microsomes obtained were suspended in 0.1M Tris-HCl buffer (pH 7.5) so that the amount of proteins was 40 mg/ml, and under ice cooling, the suspension was stirred in the presence of 2 % Triton X-100 to solubilize the enzyme. After the solubilization, the solution was diluted to a Triton X-100 concentration of 0.5 % with 1 mM EDTA and 1 mM dithiothreitol, and centrifuged at 105000 Xg for 1 hour. The resulting supernatant fraction was used in the following test as a squalene epoxidase fraction.
The squalene epoxidase activity was assayed in accordance with the method described in J. Biol. Chem., vol.
Three microliters of a dimethyl sulfoxide solution of a test drug was added to a solution composed of 0.2 ml of the squalene epoxidase fraction prepared in (1) [proteins 0.4 mg, 0.5 % Triton X-100, […] Tris-HCl buffer (pH 7.5)], 100 µM FAD, 1 mM NADPH, 1 mM EDTA and 8 µM ³H-squalene-Tween 80 emulsion to adjust the total amount of the solution to 0.3 ml. The solution was incubated at 37 °C for 30 minutes with shaking. Then, 0.3 ml of a 10 % methanolic potassium hydroxide was added to stop the reaction, and the reaction mixture was left to stand at room temperature for 1 hour. The non-saponified material was extracted with petroleum ether, and the solvent was evaporated under a nitrogen stream. […] The position of the resulting ³H-squalene-2,3-epoxide on TLC was determined using ergosterol acetate as a marker, and the ³H-squalene-2,3-epoxide portion on the TLC was cut off. The TLC strip was immersed in a toluene-type scintillator, and measured by a liquid scintillation counter.

T1 sequence (P52020 whole entry): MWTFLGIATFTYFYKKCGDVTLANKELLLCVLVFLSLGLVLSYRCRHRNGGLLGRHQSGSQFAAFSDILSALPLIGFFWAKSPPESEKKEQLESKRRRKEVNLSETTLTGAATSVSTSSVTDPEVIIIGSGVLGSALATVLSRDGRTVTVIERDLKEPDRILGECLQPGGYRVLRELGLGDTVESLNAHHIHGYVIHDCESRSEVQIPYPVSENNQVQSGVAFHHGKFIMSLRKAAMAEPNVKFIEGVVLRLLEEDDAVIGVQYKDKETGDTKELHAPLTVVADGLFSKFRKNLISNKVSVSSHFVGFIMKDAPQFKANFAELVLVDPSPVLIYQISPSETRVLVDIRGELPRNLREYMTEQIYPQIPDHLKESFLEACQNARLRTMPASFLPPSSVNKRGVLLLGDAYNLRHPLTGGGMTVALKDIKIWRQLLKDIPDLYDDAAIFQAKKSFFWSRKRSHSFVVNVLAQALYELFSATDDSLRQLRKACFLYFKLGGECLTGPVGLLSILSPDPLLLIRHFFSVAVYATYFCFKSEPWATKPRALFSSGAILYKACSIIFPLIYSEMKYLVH

| SMILES | IC50 |
| --- | --- |
| CCCN(C/C=C/C#CC(C)(C)C)Cc1cccc(OCc2cccc(-c3cnco3)c2)c1 [Compound 123, (E)-N-(6,6-dimethyl-2-hepten-4-ynyl)-N-propyl-3-[3-(5-oxazolyl)benzyloxy]benzylamine] | 0.034 µM |
| CN(C/C=C/C#CC(C)(C)C)Cc1cccc(OCc2ccccc2C#N)c1 [Compound 67, (E)-N-(6,6-dimethyl-2-hepten-4-ynyl)-N-methyl-3-(2-cyanobenzyloxy)benzylamine hydrochloride] | 2.4 µM |
| C/C=C(\C)COc1cccc(CN(C)C/C=C/C#CC(C)(C)C)c1 [Compound 90, N-[(E)-6,6-dimethyl-2-hepten-4-ynyl]-N-methyl-3-[(E)-2-methyl-2-butenyloxy]benzylamine hydrochloride] | 5.5 µM |
| CN(C/C=C/C#CC(C)(C)C)Cc1cccc(OCc2cccc(-c3ncco3)c2)c1 [Compound 76, (E)-N-(6,6-dimethyl-2-hepten-4-ynyl)-N-methyl-3-[3-(2-oxazolyl)benzyloxy]benzylamine] | 1.2 µM |
| CN(C/C=C/C#CC(C)(C)C)Cc1cccc(OC/C=C/c2ccccc2)c1 [Compound 63, N-[(E)-6,6-dimethyl-2-hepten-4-ynyl]-N-methyl-3-[(E)-3-phenyl-2-propenyloxy]benzylamine hydrochloride] | 5.4 µM |
| Cc1ccc(CN(C)C/C=C/C#CC(C)(C)C)cc1OCc1ccccc1 [Compound 28, (E)-(6,6-dimethyl-2-hepten-4-ynyl)-N-methyl-3-benzyloxy-4-methylbenzylamine] | 5.6 µM |
| COc1ccccc1COc1cccc(CN(C)C/C=C/C#CC(C)(C)C)c1 [Compound 51, (E)-N-(6,6-dimethyl-2-hepten-4-ynyl)-N-methyl-3-(2-methoxybenzyloxy)benzylamine hydrochloride] | 1.1 µM |
| CN(C/C=C/C#CC(C)(C)C)Cc1cccc(OCc2ccccc2C(F)(F)F)c1 [Compound 68, (E)-N-(6,6-dimethyl-2-hepten-4-ynyl)-N-methyl-3-(2-trifluoromethylbenzyloxy)benzylamine hydrochloride] | 1.2 µM |
| CC(Oc1cccc(CN(C)C/C=C/C#CC(C)(C)C)c1)c1ccccc1 (stereo not drawn) [Compound 16, (E)-N-(6,6-dimethyl-2-hepten-4-ynyl)-N-methyl-3-(alpha-phenethyloxy)benzylamine] | 1.4 µM |
| CN(C/C=C/C#CC(C)(C)C)Cc1cccc(OCc2cccc(-c3ccccc3)c2)c1 [Compound 74, (E)-N-(6,6-dimethyl-2-hepten-4-ynyl)-N-methyl-3-(3-phenylbenzyloxy)benzylamine hydrochloride] | 0.57 µM |
| Cc1ccccc1COc1cccc(CN(C)C/C=C/C#CC2(C)CC2)c1 [Compound 131, (E)-N-methyl-N-[5-(1-methylcyclopropyl)-2-penten-4-ynyl]-3-(2-methylbenzyloxy)benzylamine] | 1 µM |
| Cc1ccccc1/C=C/c1cccc(CN(C)C/C=C/C#CC(C)(C)C)c1 [Compound 99, N-[(E)-6,6-dimethyl-2-hepten-4-ynyl]-N-methyl-3-[(E)-o-methylstyryl]benzylamine] | 2 µM |
| CC(C)(C)C#C/C=C/CN(Cc1cccc(OCc2ccccc2)c1)C1CC1 [Compound 43, (E)-N-cyclopropyl-N-(6,6-dimethyl-2-hepten-4-ynyl)-3-benzyloxybenzylamine] | 3.9 µM |
| Cc1ccccc1COc1ccnc(CN(C)C/C=C/C#CC(C)(C)C)c1 [Compound 112, (E)-N-(6,6-dimethyl-2-hepten-4-ynyl)-N-methyl-4-(2-methylbenzyloxy)-2-pyridylmethylamine] | 0.69 µM |
| Cc1cc(CN(C)C/C=C/C#CC(C)(C)C)cc(OCc2ccccc2)c1 [Compound 48, (E)-N-(6,6-dimethyl-2-hepten-4-ynyl)-N-methyl-3-benzyloxy-5-methylbenzylamine hydrochloride] | 5.1 µM |
| C=C(C)Cc1cccc(COc2cccc(CN(C)C/C=C/C#CC(C)(C)C)c2)c1 [Compound 71, (E)-N-(6,6-dimethyl-2-hepten-4-ynyl)-N-methyl-3-[3-(2-methyl-2-propenyl)benzyloxy]benzylamine] | 0.54 µM |
